Experimental data as given in US8940497B2, “Enzyme regulating ether lipid signaling pathways” (The Scripps Research Institute, priority 2006, dated 2015).

Tests used:
Type in all cases: cell-based, human
[1] = test system: MUM-2B melanoma cells; assay: LC-MS MAGE lipid levels in inhibitor-treated melanoma cells; details: compared to DMSO controls
Experimental: (§1) The following LC-MS conditions were used for analysis of cancer cell metabolomes. Cell pellets were harvested by scraping, isolated by centrifugation at 1,400×g, and dounce-homogenized in 4 mL of a 2:1:1 mixture of chloroform:methanol:Tris buffer (50 mM Tris*HCl, pH 8.0). Samples that were analyzed by targeted LC-MS were homogenized in the presence of the following synthetic standards: C15:0 MAG (50 pmol), C17:0 LPA (50 pmol), and 13C-C16:0 MAGE (25 pmol). Organic and aqueous layers were separated by centrifugation at 1,260×g for 5 min. The organic layer was then removed, dried under a stream of N2, and re-solubilized in 100 μL of chloroform, of which 30 μL was analyzed by LC-MS. Extraction of LPA was performed by acidifying the remaining aqueous layer to a final concentration of 5% formic acid, followed by the addition of 2 mL of chloroform. The mixture was vortexed, the organic layer removed, concentrated to dryness, and dissolved in 100 μL of chloroform, of which 30 μL was analyzed by LC-MS.
(§2) LC-MS analysis was performed using an Agilent 1100 LC-MSD SL instrument. […] Mobile phase A was composed of a 95:5 ratio of water:methanol and mobile phase B consisted of 2-propanol, methanol, and water in a 60:35:5 ratio. Solvent modifiers such as 0.1% formic acid and 0.1% ammonium hydroxide were used to assist ion formation as well as improve the LC resolution in both positive and negative ionization modes respectively. The flow rate for each run started at 0.1 mL/min for 5 min, to alleviate backpressure associated with injecting chloroform. The gradient started at 0% B and increased linearly to 100% B over the course of 40 min with a flow rate of 0.4 mL/min, followed by an isocratic gradient of 100% B for 7 min before equilibrating for 8 min at 0% B with a flow rate of 0.5 mL/min.
(§3) MS analysis was performed with an electrospray ionization (ESI) source. […] Differentially expressed metabolites between sample pairs were identified using the XCMS analyte profiling software (http://metlin/download) that aligns mass peaks from two LC-MS traces and quantifies the relative intensities of global metabolites (5). Significant inhibitor-sensitive peak changes were confirmed by manual quantification using the area under the peak normalized to total ion current. […] Peaks were quantified by measuring the area under the peak and normalized to an internal standard (C15:0 MAG) or endogenous lipid (palmitic acid). […]
(§4) Human ovarian cancer cell lines were obtained form the National Cancer Institute's Developmental Therapeutics Program. […] At approximately 80% confluency, cells were trypsinized, counted with the aid of a hemocytometer, and 2.5×10^6 cells were plated in 6 cm dishes. […] After incubation for 4 h the cells were harvested and analyzed by ABPP or LC-MS. […]

[2] = test system: C8161 melanoma cells; assay: as above; details: compared to DMSO controls
Experimental: as §1, §2, §3, §4

[3] = test system: SKOV-3 cells; assay: Targeted LC-MS analysis of lipid levels in inhibitor-treated cells; details: compared to DMSO controls
Experimental: as §1, §2
MS analysis was performed with an electrospray ionization (ESI) source. The capillary voltage was set to 3.0 kV and the fragmentor voltage to 100V. The drying gas temperature was 350° C., the drying gas flow rate was 10 L/min, and the nebulizer pressure was 35 psi. Untargeted data was collected using a mass range of 200-1000 Da and exported as common data format (.CDF) files for computational analysis. Differentially expressed metabolites between sample pairs were identified using the XCMS analyte profiling software (http://metlin/download) that aligns mass peaks from two LC-MS traces and quantifies the relative intensities of global metabolites (5). Significant inhibitor-sensitive peak changes were confirmed by manual quantification using the area under the peak normalized to total ion current. Targeted LC-MS measurements were made using selected ion monitoring (SIM). Peaks were quantified by measuring the area under the peak and normalized to an internal standard (C15:0 MAG) or endogenous lipid (palmitic acid). Absolute MAGE levels were estimated by comparison to a 13C-MAGE standard.
Human ovarian cancer cell lines were obtained form the National Cancer Institute's Developmental Therapeutics Program. The melanoma lines C8161 and MUM-2B were obtained form Mary Hendrix. Cells were maintained in RPMI medium 1640 with 10% (v/v) fetal calf serum at 37° C. in a humidified atmosphere of 5% CO2/95% air. At approximately 80% confluency, cells were trypsinized, counted with the aid of a hemocytometer, and 2.5×10^6 cells were plated in 6 cm dishes. 20 h after plating cells were washed twice with PBS and supplemented with serum free RPMI containing 0.5% BSA (Sigma)(BSA-RPMI) with AS115 (0.01-10 μM) or vehicle (DMSO) at 0.1%. After incubation for 4 h the cells were harvested and analyzed by ABPP or LC-MS.
By extension, the m/z 345 and 347 metabolites were interpreted to represent the C18:1 and C18:0 MAGEs, respectively. […] MAGE levels were measured by targeted LC-MS analysis of SKOV-3 cells treated with AS115 (5 μM) or DMSO for 4 h using a 13C-C16:0 MAGE internal standard. Values are represented as pmol/10^6 cells. […]

[4] = test system: shKIAA1363 cells; assay: Cell migration assay (Transwell) with shKIAA1363 cells; details: concentrations up to 1 μM, 18 h
Experimental: Migration assays were performed in Transwell chambers with […] pore-sized membranes coated with 10 μg/ml collagen overnight at 4° C. (Corning). Twenty-four hours before the start of the migration assay, cancer cell lines were plated at concentration of 2.25×10^6 cells per 10 cm dish. At the start of the migration assay, cells were harvested by washing two times with PBS and then serum starved in medium containing 0.05% BSA for 4 hours. Serum starved cells were trypsinized, spun at 1400 rpm for 3 minutes, resuspended, and counted. Cells were diluted to a density of 100,000 cells/ml in medium contain 0.05% BSA, and then 250 μl were placed in the upper chamber of the transwells. Either DMSO, alkyl LPA (10 nM), alkyl LPC (10-1000 nM), or MAGE (10-1000 nM) in medium containing 0.05% BSA was added in the lower chamber, and cells were allowed to migrate for 18 h. The filters were then fixed and stained with Diff-Quik (Dade Behring). Cells that had not migrated through the chamber were removed with a cotton ball. The cells which migrated were counted at a magnification of 40× and from each migration chamber 6 fields were independently counted.
The decrease in tumorigenic potential of shKIAA1363 cells was not associated with a change in proliferation potential in vitro (FIG. 11). shKIAA1363 cells were, however, impaired in their in vitro migration capacity compared to control cells (FIG. 9B). […]

Molecule	Levels of MAGE lipids [1]	Levels of MAGE lipids [2]	Levels of MAGE lipids [3]	Effect on cancer cell migration [4]
NC(=O)c1cccc(-c2cccc(OC(=O)NC3CCCCC3)c2)c1 [URB597, reference compound]	did not affect	did not affect	did not affect	–
monoalkylglycerol ether [MAGE]	–	–	–	Neither MAGE nor alkyl-LPC impacted cancer cell migration
